Reference: the supplement of paper PMC10307832

Key:
Assay in all cases: relative viability (nuclei count vs DMSO), 5 days (fraction); higher = more cells survive
Crizotinib + Dasatinib = compound: C[C@@H](Oc1cc(-c2cnn(C3CCNCC3)c2)cnc1N)c1c(Cl)ccc(F)c1Cl [Crizotinib] + Cc1nc(Nc2ncc(C(=O)Nc3c(C)cccc3Cl)s2)cc(N2CCN(CCO)CC2)n1 [Dasatinib] (partner 0.075 µM)
How it was run: (§1)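 Lung cancer cell lines in 1536-well plates got either a single drug or a fixed anchor-drug dose together with five library-drug doses (not always all listed) in √10 steps, by pin tool, on the day after seeding. Nuclei were counted after 5 days, and relative viability is the treated-to-vehicle ratio of nuclei counts. Values are medians of duplicate plates.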

Olaparib + Tozasertib = compound: O=C(c1cc(Cc2n[nH]c(=O)c3ccccc23)ccc1F)N1CCN(C(=O)C2CC2)CC1 [Olaparib] + Cc1cc(Nc2cc(N3CCN(C)CC3)nc(Sc3ccc(NC(=O)C4CC4)cc3)n2)n[nH]1 [Tozasertib] (partner 0.1 µM)
How it was run: as §1

Carfilzomib + Luminespib = compound: CC(C)C[C@H](NC(=O)[C@H](CCc1ccccc1)NC(=O)CN1CCOCC1)C(=O)N[C@@H](Cc1ccccc1)C(=O)N[C@@H](CC(C)C)C(=O)[C@@]1(C)CO1 [Carfilzomib] + CCNC(=O)c1noc(-c2cc(C(C)C)c(O)cc2O)c1-c1ccc(CN2CCOCC2)cc1 [Luminespib] (partner 0.01 µM)
How it was run: as §1

Olaparib + Crizotinib = compound: O=C(c1cc(Cc2n[nH]c(=O)c3ccccc23)ccc1F)N1CCN(C(=O)C2CC2)CC1 [Olaparib] + C[C@@H](Oc1cc(-c2cnn(C3CCNCC3)c2)cnc1N)c1c(Cl)ccc(F)c1Cl [Crizotinib] (partner 1 µM)
How it was run: as §1

Cell Line	relative viability (Crizotinib + Dasatinib; first compound 0.01 µM)	relative viability (Crizotinib + Dasatinib; first compound 0.03162 µM)	relative viability (Crizotinib + Dasatinib; first compound 0.1 µM)	relative viability (Crizotinib + Dasatinib; first compound 0.3162 µM)	relative viability (Crizotinib + Dasatinib; first compound 1 µM)	relative viability (Olaparib + Tozasertib; first compound 0.08 µM)	relative viability (Olaparib + Tozasertib; first compound 0.253 µM)	relative viability (Olaparib + Tozasertib; first compound 2.53 µM)	relative viability (Olaparib + Tozasertib; first compound 8 µM)	relative viability (Carfilzomib + Luminespib; first compound 0.001 µM)	relative viability (Carfilzomib + Luminespib; first compound 0.003162 µM)	relative viability (Carfilzomib + Luminespib; first compound 0.01 µM)	relative viability (Carfilzomib + Luminespib; first compound 0.03162 µM)	relative viability (Carfilzomib + Luminespib; first compound 0.1 µM)	relative viability (Olaparib + Crizotinib; first compound 0.08 µM)	relative viability (Olaparib + Crizotinib; first compound 0.253 µM)	relative viability (Olaparib + Crizotinib; first compound 2.53 µM)	relative viability (Olaparib + Crizotinib; first compound 8 µM)
201T	0.599	0.628	0.614	0.548	0.569	1.05	0.91	0.919	0.879	0.999	1.15	1.07	1.02	0.915	1.01	1	1.01	0.973
A549	–	–	–	–	–	–	–	–	–	–	–	–	–	–	0.884	0.654	0.777	0.358
A-427	0.696	0.765	0.687	–	0.719	0.196	0.209	0.188	0.163	0.837	1.18	1.05	0.141	0.112	0.958	0.882	0.705	0.71
ABC-1	–	0.534	0.54	0.501	0.616	0.22	0.149	0.198	0.182	0.581	1.35	0.246	0.193	0.141	1.57	1.04	1.19	0.961
BEN	0.295	0.311	0.27	0.224	0.312	0.53	0.48	0.529	0.48	0.287	0.528	0.258	0.248	0.175	0.856	0.82	1	0.931
CAL-12T	0.407	0.47	0.394	–	0.299	0.345	0.259	0.281	0.235	0.486	0.29	0.478	0.16	0.141	0.917	0.575	0.95	0.572
COR-L23	0.508	0.424	0.519	0.437	0.533	0.22	0.192	0.176	0.12	0.665	0.681	0.557	0.0931	0.0743	0.852	0.58	0.515	0.274
COR-L 105	0.36	0.328	0.324	0.303	0.257	0.368	0.351	0.319	0.275	0.721	0.737	0.788	0.503	0.236	0.866	0.668	0.621	0.522
Calu-6	–	–	–	–	–	–	–	–	–	–	–	–	–	–	1.08	0.662	0.74	0.573
ChaGo-K-1	0.58	0.573	0.487	0.424	0.624	0.286	0.198	0.232	0.197	0.581	0.747	0.587	0.523	0.171	1.26	1.06	1.31	0.862
EBC-1	–	–	–	–	–	–	–	–	–	–	–	–	–	–	0.206	0.178	0.203	0.186
EKVX	0.372	0.572	0.514	0.492	0.648	0.441	0.352	0.388	0.445	0.887	0.907	0.886	0.788	0.39	1.13	0.831	1.08	0.98
EMC-BAC-2	0.369	0.313	0.282	0.363	0.331	0.284	0.296	0.279	0.262	1.13	1.24	1.26	1.16	0.225	0.767	0.727	0.638	0.603
EPLC-272H	0.426	0.382	0.445	0.366	0.401	0.193	0.234	0.312	0.172	0.266	0.694	0.269	0.151	0.101	1.06	0.751	1.07	0.864
H3255	0.381	0.462	0.422	0.393	0.258	0.704	0.602	0.82	0.496	0.847	0.904	0.797	0.656	0.143	0.901	0.913	0.885	0.814
HARA	0.28	0.279	0.256	–	0.198	0.14	0.0884	0.0969	0.0782	0.871	0.576	0.615	0.051	0.0562	1.04	0.93	1.08	0.803
HCC-15	0.557	0.573	0.639	–	0.562	0.479	0.341	0.406	0.29	0.306	0.344	0.299	0.268	0.0676	0.96	0.75	0.851	0.69
HCC-44	–	–	–	–	–	1.27	0.857	0.871	1.06	1.01	1.15	0.955	0.471	0.212	0.914	0.729	0.841	0.825
HCC-78	–	0.335	0.448	0.361	0.322	0.399	1.61	0.41	0.486	–	–	–	–	–	0.395	0.356	0.396	0.368
HCC-366	0.592	0.649	0.618	–	0.458	0.11	0.118	0.0926	0.0619	–	–	–	–	–	0.517	0.473	0.238	0.145
HCC-827	0.287	0.289	0.255	0.225	0.326	0.414	0.376	0.399	0.378	0.344	0.635	0.625	0.721	0.281	0.941	0.908	0.949	0.814
HOP-62	0.581	0.637	0.613	0.663	0.716	0.485	0.317	0.374	0.287	0.986	0.91	0.849	0.784	0.0941	1.07	0.902	0.792	0.631

Cell Line	relative viability (Crizotinib + Dasatinib; first compound 0.01 µM)	relative viability (Crizotinib + Dasatinib; first compound 0.03162 µM)	relative viability (Crizotinib + Dasatinib; first compound 0.1 µM)	relative viability (Crizotinib + Dasatinib; first compound 0.3162 µM)	relative viability (Crizotinib + Dasatinib; first compound 1 µM)	relative viability (Olaparib + Tozasertib; first compound 0.08 µM)	relative viability (Olaparib + Tozasertib; first compound 0.253 µM)	relative viability (Olaparib + Tozasertib; first compound 2.53 µM)	relative viability (Olaparib + Tozasertib; first compound 8 µM)	relative viability (Carfilzomib + Luminespib; first compound 0.001 µM)	relative viability (Carfilzomib + Luminespib; first compound 0.003162 µM)	relative viability (Carfilzomib + Luminespib; first compound 0.01 µM)	relative viability (Carfilzomib + Luminespib; first compound 0.03162 µM)	relative viability (Carfilzomib + Luminespib; first compound 0.1 µM)	relative viability (Olaparib + Crizotinib; first compound 0.08 µM)	relative viability (Olaparib + Crizotinib; first compound 0.253 µM)	relative viability (Olaparib + Crizotinib; first compound 2.53 µM)	relative viability (Olaparib + Crizotinib; first compound 8 µM)
IA-LM	–	–	–	–	–	–	–	–	–	–	–	–	–	–	1.14	0.877	0.583	0.54
LC-2-ad	0.46	0.586	0.595	0.382	0.453	0.554	0.429	0.436	0.437	0.974	1.19	1.12	0.593	0.265	0.368	0.388	0.472	0.406
LCLC-97TM1	0.827	0.763	0.784	0.816	0.846	0.22	0.211	0.262	0.238	0.743	0.858	0.753	0.27	0.14	0.409	0.35	0.365	0.305
LCLC-103H	0.479	0.418	0.416	0.497	0.484	0.499	0.47	0.528	0.41	0.849	0.975	0.943	1.04	0.176	1.15	1.04	1.04	0.985
LK-2	0.369	0.338	0.253	–	0.285	0.161	0.178	0.164	0.171	0.221	0.203	0.175	0.17	0.168	0.177	0.181	0.192	0.186
LOU-NH91	0.523	0.547	0.623	0.554	0.486	0.729	0.674	0.637	0.628	0.344	0.475	0.344	0.287	0.289	0.785	0.71	0.721	0.744
LU99A	0.434	0.565	0.501	0.55	0.566	0.299	0.292	0.261	0.22	0.252	0.221	0.284	0.218	0.191	0.522	0.495	0.427	0.42
LXF-289	0.306	0.209	0.223	0.184	0.247	0.232	0.146	0.159	0.156	0.654	0.761	0.552	0.515	0.0761	0.907	0.799	0.889	0.875
NCI-H23	0.763	0.83	0.645	–	0.742	0.391	0.335	0.397	0.232	0.211	0.201	0.201	0.188	0.184	0.673	0.444	0.492	0.274
NCI-H322M	0.23	0.251	0.232	0.262	0.263	0.484	0.471	0.473	0.434	0.719	0.951	0.849	0.713	0.291	1.03	0.803	0.994	0.902
NCI-H358	0.137	0.163	0.147	0.151	0.156	0.101	0.119	0.106	0.116	0.295	0.456	0.378	0.281	0.118	0.606	0.541	0.651	0.518
NCI-H522	0.945	–	0.875	0.938	0.944	0.513	0.541	0.593	0.621	1.09	1.57	1.16	1.26	0.367	–	–	–	–
NCI-H1299	–	–	–	–	–	–	–	–	–	–	–	–	–	–	1.06	0.903	0.986	0.95
NCI-H1395	0.388	0.376	0.409	0.391	0.358	0.816	0.657	0.598	0.548	0.594	0.783	0.66	0.561	0.309	–	–	–	–
NCI-H1563	0.462	0.443	0.453	0.444	0.461	–	–	–	–	0.538	0.455	0.512	0.457	0.466	0.867	0.813	0.896	0.826
NCI-H1623	0.455	0.502	0.499	0.454	0.505	0.474	0.446	0.493	0.413	0.466	0.527	0.563	0.59	0.345	–	–	–	–
NCI-H1648	–	–	–	–	–	–	0.482	–	0.556	–	–	–	–	–	–	–	–	–
NCI-H1703	–	–	–	–	–	–	–	–	–	–	–	–	–	–	1.07	0.734	0.903	0.522
NCI-H1792	0.706	0.829	0.733	–	0.936	–	–	–	–	0.425	0.423	0.482	0.456	0.356	1.03	0.82	0.843	0.794
NCI-H2342	0.302	0.334	0.303	0.349	0.291	0.458	0.552	0.479	0.416	0.69	1.01	0.794	0.798	0.581	–	–	–	–
SW 900	0.449	0.518	0.763	0.597	0.633	0.516	0.395	0.536	0.483	0.164	0.196	0.213	0.172	0.149	–	–	–	–
